Starred links: 1 amine or outer side, 2 acyl side, 3 side chain; linkers in the order of their positions; H or OH if unused. Positions of bridges follow the written chain, without caps; N, C: chain ends. Non-standard residues stand in square brackets, D forms with d. Residues, ends and D or L forms follow the SMILES beside them. Pro(3R,4S-CMe2) = CC1(C)[C@@H]2[C@@H](C(=O)O)NC[C@@H]21; Naphthalene(2,6-diCH2) = c1cc2cc(C[*:2])ccc2cc1C[*:1]; Trp(5-F) = N[C@@H](Cc1c[nH]c2ccc(F)cc12)C(=O)O; αMeW = C[C@](N)(Cc1c[nH]c2ccccc12)C(=O)O; 1Nal = N[C@@H](Cc1cccc2ccccc12)C(=O)O; mXylylene = c1cc(C[*:1])cc(C[*:2])c1; NMeY = CN[C@@H](Cc1ccc(O)cc1)C(=O)O; X54 = c1cc2ccc(C[*:2])cc2cc1C[*:1]; X35 = COc1cc(C[*:1])cc(C[*:2])c1; hPhe = N[C@@H](CCc1ccccc1)C(=O)O; NMeD = CN[C@@H](CC(=O)O)C(=O)O; αMeK = C[C@](N)(CCCCN)C(=O)O; NMeV = CN[C@H](C(=O)O)C(C)C; Pip = O=C(O)[C@@H]1CCCCN1; Aze = O=C(O)[C@@H]1CCN1; Ac3c = NC1(C(=O)O)CC1; Aib = CC(C)(N)C(=O)O; Mpa = O=C(O)CCS; Sar = CNCC(=O)O
target: human PCSK9 / human LDLR EGFa domain interaction (Homo sapiens (Human), UniProt Q8NBP7); experiment: TR-FRET assay of inhibition of the PCSK9-LDLR protein-protein interaction; type: binding; conditions: TR-FRET, 20 nM human PCSK9, 20 nM human LDLR EGFa domain, 2 hours room temperature; read-out: IC50
Sequence (Q8NBP7 153-692): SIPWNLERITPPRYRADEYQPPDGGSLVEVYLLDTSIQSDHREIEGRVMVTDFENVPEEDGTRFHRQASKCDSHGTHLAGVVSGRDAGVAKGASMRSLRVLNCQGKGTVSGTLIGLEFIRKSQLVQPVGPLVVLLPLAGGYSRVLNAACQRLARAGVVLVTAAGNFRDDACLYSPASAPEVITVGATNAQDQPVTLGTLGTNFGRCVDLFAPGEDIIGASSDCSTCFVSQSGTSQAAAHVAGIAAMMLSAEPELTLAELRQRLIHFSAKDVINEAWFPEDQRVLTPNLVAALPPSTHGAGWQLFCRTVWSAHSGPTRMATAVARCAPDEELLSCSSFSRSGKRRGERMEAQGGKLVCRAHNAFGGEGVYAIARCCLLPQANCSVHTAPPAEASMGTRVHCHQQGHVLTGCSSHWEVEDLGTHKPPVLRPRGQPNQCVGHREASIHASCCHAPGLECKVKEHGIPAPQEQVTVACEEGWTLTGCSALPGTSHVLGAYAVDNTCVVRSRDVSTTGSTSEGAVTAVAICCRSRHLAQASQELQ
Sequence (Q8NBP7 31-152 partner): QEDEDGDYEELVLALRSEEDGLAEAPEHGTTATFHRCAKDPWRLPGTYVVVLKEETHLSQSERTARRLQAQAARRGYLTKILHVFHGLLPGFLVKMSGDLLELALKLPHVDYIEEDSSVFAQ
Procedure: A time-resolved fluorescence resonance energy (TR-FRET) assay was used to measure inhibition of the PCSK9-LDLR protein-protein interaction. Briefly, 20 nM avitag-biotinylated human PCSK9 was incubated with 20 nM his-tagged human LDLR EGFa domain in the presence of 5 nM LANCE Ulight Streptavidin (Perkin Elmer) and 5 nM europium-Anti-6×His (Perkin Elmer) for 2 hours covered at room temperature in buffer containing 50 mM HEPES, 150 mM NaCl, 5 mM CaCl2), 0.01% BSA and 0.01% Surfactant P20. Compounds were tested in dose-response and concentrations giving half-maximal inhibition calculated using a 4-parameter fit equation.

Row | SMILES | IC50 [µM]
1 | CN1CC(=O)N[C@H](C(N)=O)CSCc2cccc(c2)CSCCC(=O)N[C@@H](CCCCN)C(=O)NCC(=O)N[C@@H](Cc2c[nH]c3ccc(F)cc23)C(=O)N[C@@H](Cc2c[nH]c3ccc(F)cc23)C(=O)N[C@@H](CC(=O)O)C(=O)N[C@@H](Cc2cnc[nH]2)C(=O)N[C@@H](Cc2ccc(O)cc2)C1=O [Compound 194] ([Mpa]KG[Trp(5-F)][Trp(5-F)]DHY[Sar]C-NH2; linker 1-10 via mXylylene) | 21 to 50
2 | COc1cc2cc(c1)CSC[C@@H](C(N)=O)NC(=O)[C@@H]1CCCN1C(=O)[C@H](Cc1ccc(O)cc1)NC(=O)[C@H](Cc1c[nH]cn1)NC(=O)[C@H](CC(=O)O)NC(=O)[C@H](Cc1c[nH]c3ccc(F)cc13)NC(=O)[C@H](Cc1c[nH]c3ccc(F)cc13)NC(=O)CNC(=O)[C@H](CCCCN)NC(=O)CCSC2 [Compound 197] ([Mpa]KG[Trp(5-F)][Trp(5-F)]DHYPC-NH2; linker 1-10 via X35) | 21 to 50
3 | CC1(C)[C@@H]2[C@H]3C(=O)N[C@H](C(N)=O)CSCc4cccc(c4)CSCCC(=O)N[C@@H](CCCCN)C(=O)NCC(=O)N[C@@H](Cc4c[nH]c5ccc(F)cc45)C(=O)N[C@@H](Cc4c[nH]c5ccc(F)cc45)C(=O)N[C@@H](CC(=O)O)C(=O)N[C@@H](Cc4c[nH]cn4)C(=O)N[C@@H](Cc4ccc(O)cc4)C(=O)N3C[C@@H]21 [Compound 201] ([Mpa]KG[Trp(5-F)][Trp(5-F)]DHY[Pro(3R,4S-CMe2)]C-NH2; linker 1-10 via mXylylene) | 1 to 12.1
4 | NCCCC[C@@H]1NC(=O)CCSCc2ccc3cc(ccc3c2)CSC[C@@H](C(N)=O)NC(=O)[C@@H]2CCCN2C(=O)[C@H](Cc2ccc(O)cc2)NC(=O)[C@H](Cc2c[nH]cn2)NC(=O)[C@H](CC(=O)O)NC(=O)[C@H](Cc2c[nH]c3ccc(F)cc23)NC(=O)[C@H](Cc2c[nH]c3ccc(F)cc23)NC(=O)CNC1=O [Compound 203] ([Mpa]KG[Trp(5-F)][Trp(5-F)]DHYPC-NH2; linker 1-10 via Naphthalene(2,6-diCH2)) | 1 to 12.1
5 | NCCCC[C@@H]1NC(=O)CCSCc2ccc3ccc(cc3c2)CSC[C@@H](C(N)=O)NC(=O)[C@@H]2CCCN2C(=O)[C@H](Cc2ccc(O)cc2)NC(=O)[C@H](Cc2c[nH]cn2)NC(=O)[C@H](CC(=O)O)NC(=O)[C@H](Cc2c[nH]c3ccc(F)cc23)NC(=O)[C@H](Cc2c[nH]c3ccc(F)cc23)NC(=O)CNC1=O [Compound 206] ([Mpa]KG[Trp(5-F)][Trp(5-F)]DHYPC-NH2; linker 1-10 via X54) | 21 to 50
6 | NCCCC[C@@H]1NC(=O)CCSCc2cccc(c2)CSC[C@@H](C(N)=O)NC(=O)[C@@H]2CCN2C(=O)[C@H](Cc2ccc(O)cc2)NC(=O)[C@H](Cc2cnc[nH]2)NC(=O)[C@H](CC(=O)O)NC(=O)[C@H](Cc2c[nH]c3ccc(F)cc23)NC(=O)[C@H](Cc2c[nH]c3ccc(F)cc23)NC(=O)CNC1=O [Compound 207] ([Mpa]KG[Trp(5-F)][Trp(5-F)]DHY[Aze]C-NH2; linker 1-10 via mXylylene) | 21 to 50
7 | C[C@@]1(Cc2c[nH]c3ccccc23)NC(=O)CNC(=O)[C@H](CCCCN)NC(=O)CCSCc2cccc(c2)CSC[C@@H](C(N)=O)NC(=O)[C@@H]2CCCN2C(=O)[C@H](Cc2ccc(O)cc2)NC(=O)[C@H](Cc2c[nH]cn2)NC(=O)[C@H](CC(=O)O)NC(=O)[C@H](Cc2c[nH]c3ccc(F)cc23)NC1=O [Compound 212] ([Mpa]KG[αMeW][Trp(5-F)]DHYPC-NH2; linker 1-10 via mXylylene) | 0.1 to 1
8 | CC1(C)NC(=O)[C@H](Cc2ccc(O)cc2)NC(=O)[C@H](Cc2cnc[nH]2)NC(=O)[C@H](CC(=O)O)NC(=O)[C@H](Cc2c[nH]c3ccc(F)cc23)NC(=O)[C@H](Cc2c[nH]c3ccc(F)cc23)NC(=O)CNC(=O)[C@H](CCCCN)NC(=O)CCSCc2cccc(c2)CSC[C@@H](C(N)=O)NC1=O [Compound 218] ([Mpa]KG[Trp(5-F)][Trp(5-F)]DHY[Aib]C-NH2; linker 1-10 via mXylylene) | 0.1 to 1
9 | CN1CC(=O)N[C@@H](Cc2c[nH]c3ccccc23)C(=O)N[C@@H](Cc2c[nH]c3ccccc23)C(=O)N(C)[C@@H](CC(=O)O)C(=O)N[C@@H](Cc2cnc[nH]2)C(=O)N(C)[C@@H](Cc2ccc(O)cc2)C(=O)N2CCC[C@H]2C(=O)N[C@H](C(N)=O)CSCc2cccc(c2)CSCCC(=O)N[C@@H](CCCCN)C1=O [Compound 221] ([Mpa]K[Sar]WW[NMeD]H[NMeY]PC-NH2; linker 1-10 via mXylylene) | 21 to 50

Now from value to compound:

Row | IC50 [µM] | SMILES
10 | 21 to 50 | NCCCC[C@@H]1NC(=O)CCSCc2cccc(c2)CSC[C@@H](C(N)=O)NC(=O)C2(CC2)NC(=O)[C@H](Cc2ccc(O)cc2)NC(=O)[C@H](Cc2c[nH]cn2)NC(=O)[C@H](CC(=O)O)NC(=O)[C@H](Cc2c[nH]c3ccc(F)cc23)NC(=O)[C@H](Cc2c[nH]c3ccc(F)cc23)NC(=O)CNC1=O [Compound 195] ([Mpa]KG[Trp(5-F)][Trp(5-F)]DHY[Ac3c]C-NH2; linker 1-10 via mXylylene)
11 | 21 to 50 | NCCCC[C@@H]1NC(=O)CCSCc2cccc(c2)CSC[C@@H](C(N)=O)NC(=O)[C@@H]2CCCCN2C(=O)[C@H](Cc2ccc(O)cc2)NC(=O)[C@H](Cc2cnc[nH]2)NC(=O)[C@H](CC(=O)O)NC(=O)[C@H](Cc2c[nH]c3ccc(F)cc23)NC(=O)[C@H](Cc2c[nH]c3ccc(F)cc23)NC(=O)CNC1=O [Compound 208] ([Mpa]KG[Trp(5-F)][Trp(5-F)]DHY[Pip]C-NH2; linker 1-10 via mXylylene)
12 | 1 to 12.1 | NCCCC[C@@H]1NC(=O)CCSCc2cccc(c2)CSC[C@@H](C(N)=O)NC(=O)[C@@H]2CCCN2C(=O)[C@H](Cc2ccc(O)cc2)NC(=O)[C@H](Cc2c[nH]cn2)NC(=O)[C@H](CC(=O)O)NC(=O)[C@H](Cc2c[nH]c3ccc(F)cc23)NC(=O)[C@H](Cc2cccc3ccccc23)NC(=O)CNC1=O [Compound 209] ([Mpa]KG[1Nal][Trp(5-F)]DHYPC-NH2; linker 1-10 via mXylylene)
13 | 1 to 12.1 | NCCCC[C@@H]1NC(=O)CCSCc2cccc(c2)CSC[C@@H](C(N)=O)NC(=O)[C@@H]2CCCN2C(=O)[C@H](Cc2ccc(O)cc2)NC(=O)[C@H](Cc2c[nH]cn2)NC(=O)[C@H](CC(=O)O)NC(=O)[C@H](Cc2c[nH]c3ccc(F)cc23)NC(=O)[C@H](CCc2ccccc2)NC(=O)CNC1=O [Compound 211] ([Mpa]KG[hPhe][Trp(5-F)]DHYPC-NH2; linker 1-10 via mXylylene)
14 | 1 to 12.1 | C[C@@]1(CCCCN)NC(=O)CCSCc2cccc(c2)CSC[C@@H](C(N)=O)NC(=O)[C@@H]2CCCN2C(=O)[C@H](Cc2ccc(O)cc2)NC(=O)[C@H](Cc2c[nH]cn2)NC(=O)[C@H](CC(=O)O)NC(=O)[C@H](Cc2c[nH]c3ccc(F)cc23)NC(=O)[C@H](Cc2c[nH]c3ccc(F)cc23)NC(=O)CNC1=O [Compound 214] ([Mpa][αMeK]G[Trp(5-F)][Trp(5-F)]DHYPC-NH2; linker 1-10 via mXylylene)
15 | 21 to 50 | CC(C)[C@H]1C(=O)N[C@H](C(N)=O)CSCc2cccc(c2)CSCCC(=O)N[C@@H](CCCCN)C(=O)NCC(=O)N[C@@H](Cc2c[nH]c3ccc(F)cc23)C(=O)N[C@@H](Cc2c[nH]c3ccc(F)cc23)C(=O)N[C@@H](CC(=O)O)C(=O)N[C@@H](Cc2cnc[nH]2)C(=O)N[C@@H](Cc2ccc(O)cc2)C(=O)N1C [Compound 220] ([Mpa]KG[Trp(5-F)][Trp(5-F)]DHY[NMeV]C-NH2; linker 1-10 via mXylylene)

Reference: patent publication US11530244B2, “Cyclic polypeptides for PCSK9 inhibition” (priority 2018, dated 2022)
